This passage reports IC50 results from US20070219212A1, “Pyranouidole Derivatives and the Use Thereof for the Treatment of Hepatitis C Virus Infection or Disease” (priority 2004, published 2007).

Assay [1] addresses T1, NS5B from the BK strain (genotype 1b) (Hepatitis C virus genotype 1b, UniProt P26663).
T1 construct: NS5B from the BK strain (genotype 1b) is expressed in E coli as a protein in which the 21 C-terminal amino acids are replaced; made in house; host or cells: E. coli
The assay is described as follows: Hepatitis C polymerase (NS5B, BK strain) inhibition, radioactive filter assay. It counts as biochemical. Particulars: NS5B BK strain (genotype 1b). The essentials: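 E. coli-expressed C-terminally truncated His-tagged NS5B preincubated 15 min with compound at room temperature, then run 2 h at 22-25 °C on a hairpin-primed heteropolymeric RNA template (~3 nM) with radioactive nucleotides. EDTA stop; ~760 nt 33P product captured on filters, washed with phosphate buffer pH 7.0, scintillation counted.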

In assay [2] the target is BB7 RNA-dependent RNA polymerase hepatitis C virus protein (Con1 HCV sequence) (Hepatitis C virus genotype 1b, UniProt Q9WMX2). The assay is described as follows: Hepatitis C polymerase (BB7) inhibition. The assay is classed as biochemical. The essentials:
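Con1 (BB7) replicon-derived NS5B polymerase preincubated with compound (15% DMSO) 15 min at room temperature, then RNA template (~3 nM pOF) and nucleotides added. Reaction run 2 h at 22-25° C., stopped with EDTA (85 mM final). ^33P-labelled product captured on filters, washed with 0.5 M sodium phosphate pH 7.0, scintillation counted.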

Setting [3] is: BB7 (Con1) NS5B, read-out: BB7 IC50.

Molecules are shown by their SMILES. Like-named read-outs stand apart in the source and are kept apart here.

Chain of BB7 RNA-dependent RNA polymerase hepatitis C virus protein (Con1 HCV sequence) (Q9WMX2 2420-3010): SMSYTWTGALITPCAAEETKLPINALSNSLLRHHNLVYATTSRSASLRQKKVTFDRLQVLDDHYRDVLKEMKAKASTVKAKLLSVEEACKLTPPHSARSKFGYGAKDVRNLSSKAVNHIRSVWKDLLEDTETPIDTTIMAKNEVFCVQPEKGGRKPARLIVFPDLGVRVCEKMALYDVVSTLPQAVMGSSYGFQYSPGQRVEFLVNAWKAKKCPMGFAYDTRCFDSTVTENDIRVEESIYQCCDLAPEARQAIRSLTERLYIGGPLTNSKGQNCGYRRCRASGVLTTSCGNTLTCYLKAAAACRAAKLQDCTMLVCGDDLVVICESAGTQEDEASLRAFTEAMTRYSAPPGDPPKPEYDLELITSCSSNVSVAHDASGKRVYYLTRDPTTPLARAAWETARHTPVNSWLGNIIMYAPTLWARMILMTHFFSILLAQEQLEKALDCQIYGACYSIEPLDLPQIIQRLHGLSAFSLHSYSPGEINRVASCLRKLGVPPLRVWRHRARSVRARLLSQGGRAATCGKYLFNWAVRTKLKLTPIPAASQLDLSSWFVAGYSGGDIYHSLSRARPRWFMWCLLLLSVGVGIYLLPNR
T1 sequence (P26663 2420-2989): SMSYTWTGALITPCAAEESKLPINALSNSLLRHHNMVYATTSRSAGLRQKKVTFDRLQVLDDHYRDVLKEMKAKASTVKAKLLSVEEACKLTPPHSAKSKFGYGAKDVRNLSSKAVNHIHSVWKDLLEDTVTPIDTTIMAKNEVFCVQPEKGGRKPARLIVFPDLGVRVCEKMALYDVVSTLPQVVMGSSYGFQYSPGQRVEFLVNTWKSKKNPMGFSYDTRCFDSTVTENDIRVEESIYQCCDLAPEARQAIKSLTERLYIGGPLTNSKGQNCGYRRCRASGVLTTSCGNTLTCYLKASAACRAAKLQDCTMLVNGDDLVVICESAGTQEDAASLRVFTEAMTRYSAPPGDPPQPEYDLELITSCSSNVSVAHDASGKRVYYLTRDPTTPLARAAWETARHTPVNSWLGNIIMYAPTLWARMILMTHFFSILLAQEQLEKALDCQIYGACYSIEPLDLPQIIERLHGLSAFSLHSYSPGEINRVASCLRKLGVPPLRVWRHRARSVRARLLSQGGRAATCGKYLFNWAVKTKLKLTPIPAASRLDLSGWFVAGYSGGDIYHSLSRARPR

In general, IC50 refers to the concentration that inhibits the measured activity by half. For `CCC[C@]1(CC(=O)O)OCCc2c1[nH]c1c(C)c(OCc3cc(C)n(C)n3)cc(C#N)c21` [Example 25, (R)-[5-Cyano-7-(1,5-dimethyl-1H-pyrazol-3-ylmethoxy)-8-methyl-1-propyl-1,3,4,9-tetrahydro-pyrano[3,4-b]indol-1-yl]-acetic acid], the IC50 in assay [1] and in assay [2] was less than 500 nM in each case.

In the case of `CCCC1(CC(=O)O)OCCc2c1[nH]c1c(C)c(COCC3CCC3)cc(C#N)c21` (centres unmarked) [Example 9, (5-Cyano-7-cyclobutylmethoxymethyl-8-methyl-1-propyl-1,3,4,9-tetrahydro-pyrano[3,4-b]indol-1-yl)-acetic acid], the IC50 in assay [1] and in assay [2] was 500 to 5000 nM in each case.

With `CCCC1(CC(=O)O)OCCc2c1[nH]c1c(C)c(OCC(C)OC)cc(C#N)c21` (centres unmarked) [Example 121], the IC50 in assay [1] and in assay [2] was less than 500 nM in each case.

As for `CCCC1(CC(=O)O)OCCc2c1[nH]c1c(C)c(COCc3ccc(C)cc3C)cc(C#N)c21` (centres unmarked) [Example 17, [5-Cyano-7-(2,4-dimethyl-benzyloxymethyl)-8-methyl-1-propyl-1,3,4,9-tetrahydro-pyrano[3,4-b]indol-1-yl]-acetic acid], the IC50 in assay [1] was 500 to 5000 nM; in assay [2], greater than 5000 nM.

Take `CCCC1(CC(=O)O)OCCc2c1[nH]c1c(C)c(OCc3nsc(OCC)n3)cc(C#N)c21` (centres unmarked) [Example 134]: the IC50 in assay [1] and in assay [2] (setting [3]) was less than 500 nM in each case.

Turning to `CCCC1(CC(=O)O)OCCc2c1[nH]c1c(C)c(OCc3ccn(CC)n3)cc(C#N)c21` (centres unmarked) [Example 137], the IC50 in assay [1] and in assay [2] was less than 500 nM in each case.

For the molecule `CCCC1(CC(=O)O)OCCc2c1[nH]c1c(C)c(COCc3sc(C)nc3C)cc(C#N)c21` (centres unmarked) [Example 19, [5-Cyano-7-(2,4-dimethyl-thiazol-5-ylmethoxymethyl)-8-methyl-1-propyl-1,3,4,9-tetrahydro-pyrano[3,4-b]indol-1-yl]-acetic acid], the IC50 in assay [1] and in assay [2] was 500 to 5000 nM throughout.

As to `CCCC1(CC(=O)O)OCCc2c1[nH]c1c(C)c(COC3CCCCC3)cc(C#N)c21` (centres unmarked) [Example 7, (5-Cyano-7-cyclohexyloxymethyl-8-methyl-1-propyl-1,3,4,9-tetrahydro-pyrano[3,4-b]indol-1-yl)-acetic acid], the IC50 in assay [1] and in assay [2] was 500 to 5000 nM each time.

With `CCCC1(CC(=O)O)OCCc2c1[nH]c1c(C)c(OCCCSC)cc(C#N)c21` (centres unmarked) [Example 142], the IC50 in assay [1] and in assay [2] was less than 500 nM throughout.

For `CCCC1(CC(=O)O)OCCc2c1[nH]c1c(C)c(OCCOC)cc(C#N)c21` (centres unmarked) [Example 43], the IC50 in assay [1] and in assay [2] was less than 500 nM each time.

Turning to `CCCC1(CC(=O)O)OCCc2c1[nH]c1c(C)c(OCC(C)=O)cc(C#N)c21` (centres unmarked) [Example 98], the values for the IC50 in assay [1] and in assay [2] were 500 to 5000 nM and less than 500 nM, respectively.

As for `CCCC1(CC(=O)O)OCCc2c1[nH]c1c(C)c(OCc3nc(C)ccc3OC)cc(C#N)c21` (centres unmarked) [Example 86], the IC50 in assay [1] and in assay [2] was less than 500 nM in each case.

Turning to `CCCC1(CC(=O)O)OCCc2c1[nH]c1c(C)c(OCC3CC3)cc(C#N)c21` (centres unmarked) [Example 22, (5-Cyano-7-cyclopropylmethoxy-8-methyl-1-propyl-1,3,4,9-tetrahydro-pyrano[3,4-b]indol-1-yl)-acetic acid], the IC50 in assay [1] and in assay [2] was less than 500 nM each time.

As to `CCC[C@]1(CC(=O)O)OCCc2c1[nH]c1c(C)c(OCc3cc(C)on3)cc(C#N)c21` [Example 23, (R)-[5-Cyano-8-methyl-7-(5-methyl-isoxazol-3-ylmethoxy)-1-propyl-1,3,4,9-tetrahydro-pyrano[3,4-b]indol-1-yl]-acetic acid], the IC50 in assay [1] and in assay [2] was less than 500 nM each time.

Regarding `CCCC1(CC(=O)O)OCCc2c1[nH]c1c(C)c(OCc3cc(C)on3)cc(C#N)c21` (centres unmarked) [Example 56], the IC50 in assay [1] and in assay [2] was less than 500 nM each time.

For the molecule `CCC[C@]1(CC(=O)O)OCCc2c1[nH]c1c(C)c(OCCOC)cc(C#N)c21` [Example 44], the IC50 in assay [1] and in assay [2] was less than 500 nM each time.

On to `CCCC1(CC(=O)O)OCCc2c1[nH]c1c(C)c(OCc3c(C)noc3C)cc(C#N)c21` (centres unmarked) [Example 80], for which the IC50 in assay [1] and in assay [2] was less than 500 nM each time.

Take `CCCC1(CC(=O)O)OCCc2c1[nH]c1c(C)c(OCC(=O)NC)cc(C#N)c21` (centres unmarked) [Example 103]: the IC50 in assay [1] and in assay [2] was less than 500 nM throughout.

Consider `CCCC1(CC(=O)O)OCCc2c1[nH]c1c(C)c(O[C@H]3CCOC3)cc(C#N)c21` (some centres unmarked) [Example 40], for which the IC50 in assay [1] and in assay [2] was less than 500 nM each time.

Consider `CCCC1(CC(=O)O)OCCc2c1[nH]c1c(C)c(OCC(C)=NOCC)cc(C#N)c21` (centres unmarked) [Example 104], for which the IC50 in assay [1] and in assay [2] was less than 500 nM in each case.

Consider `CCCC1(CC(=O)O)OCCc2c1[nH]c1c(C)c(OCCN(C)Cc3ccccc3)cc(C#N)c21` (centres unmarked) [Example 114], for which the IC50 in assay [1] and in assay [2] was less than 500 nM each time.

For the molecule `CCCC1(CC(=O)O)OCCc2c1[nH]c1c(C)c(OCC3CCN(S(C)(=O)=O)CC3)cc(C#N)c21` (centres unmarked) [Example 122], the IC50 in assay [1] and in assay [2] was less than 500 nM each time.

`CCCC1(CC(=O)O)OCCc2c1[nH]c1c(C)c(COCC3CC3)cc(C#N)c21` (centres unmarked) [Example 8, (5-Cyano-7-cyclopropylmethoxymethyl-8-methyl-1-propyl-1,3,4,9-tetrahydro-pyrano[3,4-b]indol-1-yl)-acetic acid]: the values for the IC50 in assay [1] and in assay [2] were 500 to 5000 nM and less than 500 nM, respectively.

With `CCCC1(CC(=O)O)OCCc2c1[nH]c1c(C)c(OCCCS(C)(=O)=O)cc(C#N)c21` (centres unmarked) [Example 143], the IC50 in assay [1] and in assay [2] (setting [3]) was less than 500 nM each time.

Consider `CCCC1(CC(=O)O)OCCc2c1[nH]c1c(C)c(COCC)cc(C#N)c21` (centres unmarked) [Example 3, (5-Cyano-7-ethoxymethyl-8-methyl-1-propyl-1,3,4,9-tetrahydro-pyrano[3,4-b]indo-1-yl)-acetic acid], for which the results for the IC50 in assay [1] and in assay [2] were 500 to 5000 nM and less than 500 nM, respectively.

For `CCCC1(CC(=O)O)OCCc2c1[nH]c1c(C)c(OCC(C)=NOC)cc(C#N)c21` (centres unmarked) [Example 100], the IC50 in assay [1] and in assay [2] was less than 500 nM each time.

For `CCCC1(CC(=O)O)OCCc2c1[nH]c1c(C)c(OCc3cnccn3)cc(C#N)c21` (centres unmarked) [Example 64], the IC50 in assay [1] and in assay [2] was less than 500 nM throughout.

Regarding `CCCC1(CC(=O)O)OCCc2c1[nH]c1c(C)c(OCc3csc(C(C)(C)C)n3)cc(C#N)c21` (centres unmarked) [Example 85], the IC50 in assay [1] and in assay [2] was less than 500 nM each time.

Consider `CCC[C@@]1(CC(=O)O)OCCc2c1[nH]c1c(C)c(O)cc(C#N)c21` [Example 47], for which the IC50 was greater than 5000 nM in assay [1] and 500 to 5000 nM in assay [2].

Consider `CCC[C@]1(CC(=O)O)OCCc2c1[nH]c1c(C)c(OCc3nnc(C)s3)cc(C#N)c21` [Example 29, (R)-[5-Cyano-8-methyl-7-(5-methyl-[1,3,4]thiadiazol-2-ylmethoxy)-1-propyl-1,3,4,9-tetrahydro-pyrano[3,4-b]indol-1-yl]-acetic acid], for which the IC50 in assay [1] and in assay [2] was less than 500 nM in each case.

For `CCCC1(CC(=O)O)OCCc2c1[nH]c1c(C)c(OCc3nsc(N(C)C)n3)cc(C#N)c21` (centres unmarked) [Example 136], the IC50 in assay [1] and in assay [2] (setting [3]) was less than 500 nM each time.

Consider `CCCC1(CC(=O)O)OCCc2c1[nH]c1c(C)c(OCc3cccnc3N)cc(C#N)c21` (centres unmarked) [Example 51], for which the IC50 in assay [1] and in assay [2] was less than 500 nM each time.

As for `CCC[C@]1(CC(=O)O)OCCc2c1[nH]c1c(C)c(OC[C@@H](C)OC)cc(C#N)c21` [Example 28, (1R,2′R)-[5-Cyano-7-(2-methoxy-propoxy)-8-methyl-1-propyl-1,3,4,9-tetrahydro-pyrano[3,4-b]indol-1-yl]-acetic acid], the IC50 in assay [1] and in assay [2] was less than 500 nM throughout.

Regarding `CCCC1(CC(=O)O)OCCc2c1[nH]c1c(C)c(OCc3cc(C)nn3C)cc(C#N)c21` (centres unmarked) [Example 66], the IC50 in assay [1] and in assay [2] was less than 500 nM each time.

Turning to `CCCC1(CC(=O)O)OCCc2c1[nH]c1c(C)c(OCc3cc(C)nc(C)c3)cc(C#N)c21` (centres unmarked) [Example 109], the IC50 in assay [1] and in assay [2] (setting [3]) was less than 500 nM in each case.

Turning to `CCCC1(CC(=O)O)OCCc2c1[nH]c1c(C)c(OCCOCC)cc(C#N)c21` (centres unmarked) [Example 111], the IC50 in assay [1] and in assay [2] was less than 500 nM throughout.

With `CCCC1(CC(=O)O)OCCc2c1[nH]c1c(C)c(OCc3ccnc(C(C)=O)c3)cc(C#N)c21` (centres unmarked) [Example 90], the IC50 in assay [1] and in assay [2] was less than 500 nM each time.

Consider `CCCC1(CC(=O)O)OCCc2c1[nH]c1c(C)c(OCc3nccs3)cc(C#N)c21` (centres unmarked) [Example 60], for which the IC50 in assay [1] and in assay [2] was less than 500 nM throughout.

Regarding `CCCC1(CC(=O)O)OCCc2c1[nH]c1c(C)c(COc3ccccc3)cc(C#N)c21` (centres unmarked) [Example 20, (5-Cyano-8-methyl-7-phenoxymethyl-1-propyl-1,3,4,9-tetrahydro-pyrano[3,4-b]indol-1-yl)-acetic acid], the IC50 in assay [1] and in assay [2] was 500 to 5000 nM in each case.

Regarding `CCCC1(CC(=O)O)OCCc2c1[nH]c1c(C)c(OCc3cc[n+]([O-])cc3)cc(C#N)c21` (centres unmarked) [Example 71], the IC50 in assay [1] and in assay [2] was less than 500 nM in each case.
